Test [1] relates to Kasumi-1 acute myeloid leukemia cells. Nature of the test: Growth Inhibition Assay (Alamar blue), Kasumi-1. The test is classed as cell-based, human. The following applies: Kasumi-1 cells. As to the method: (§1) The IC50 values listed for some of these compounds illustrate the antiproliferative effects of the subject compounds and were obtained using the Growth Inhibition assays described herein.
(§2) Growth Inhibition Assay. Antiproliferative effects of inhibitors were evaluated using the dye Alamar blue. This reagent offers a rapid objective measure of cell viability in cell culture, and it uses the indicator dye resazurin to measure the metabolic capacity of cells, an indicator of cell viability. Briefly, cells were plated on Costar 96-well plates. For attached cells (such as SKBr3, MDA-MB-468, LNCaP, MRCS), 8,000 cells/well were used. For suspension cells (such as MOLM-13, Kasumi-1, OCI-Ly7, PBL), 20,000 cells/well were plated. Cells were allowed to incubate for 24 h at 37° C. before drug treatment. Drugs were added in triplicates at the indicated concentrations, and the plate was incubated for 72 h. Alamar Blue (440 μM) was added, and the plate read 6 h later using the Analyst GT (Fluorescence intensity mode, excitation 530 nm, emission 580 nm, with 560=dichroic mirror). Results were analyzed using the Softmax Pro software. The percentage cell growth inhibition was calculated by comparing fluorescence readings obtained from treated versus control cells, accounting for initial cell population (time zero).
Background: Resazurin is reduced to fluorescent resorufin, in cell work by metabolically active cells.

The subject of test [2] is SKBr3 HER2+ breast cancer cells. Nature of the test: Growth Inhibition Assay (Alamar blue), SKBr3. Type of test: cell-based, human. The method, then: as §1, §2

Among the data in patent US9567318B2, “Substituted pyrimidine compounds and uses thereof” (Memorial Sloan-Kettering Cancer Center, priority 2009, dated 2017) are IC50 values, retold here.

Structures are written as SMILES.

The term IC50 denotes the concentration at which inhibition is half-maximal. A higher IC50 goes with a need for much substance. For the compound `C=CC(=O)Nc1ccnc(Sc2c(OC)nc(N3CCN(C)CC3)nc2OC)n1` [YK71, N-(2-(4,6-dimethoxy-2-(4-methylpiperazin-1-yl)pyrimidin-5-ylthio)pyrimidin-4-yl)acrylamide], the IC50 in test [1] (Homo sapiens, Kasumi 1, 72 h) was found to be 0.8 µM; in test [2] (Homo sapiens, SK-BR-3, 72 h) it was 1.2 µM.

Take `C=C(C)C(=O)Nc1cccc(Sc2c(OC)nc(N3CCN(C)CC3)nc2OC)c1` [YK132, N-(3-(4,6-dimethoxy-2-(4-methylpiperazin-1-yl)pyrimidin-5-ylthio)phenyl)methacrylamideN-(3-(4,6-dimethoxy-2-(4-methylpiperazin-1-yl)pyrimidin-5-ylthio)phenyl)methacrylamide]: the values for the IC50 in test [1] (72 h) and in test [2] (72 h) were 7.7 µM and 17.8 µM, respectively.

With `CCC(=O)Nc1cccc(Sc2c(OC)nc(N3CCOCC3)nc2OC)c1` [PDP4, N-(3-(4,6-dimethoxy-2-morpholinopyrimidin-5-ylthio)phenyl)propionamide], the IC50 in test [1] (Homo sapiens, Kasumi 1, 72 h) was above 100 µM; in test [2] (Homo sapiens, SK-BR-3, 72 h), above 100 µM.

Regarding `C=CC(=O)Nc1ccnc(Sc2c(C)nc(N3CCN(C)CC3)nc2C)n1` [YK85, N-(2-(4,6-dimethyl-2-(4-methylpiperazin-1-yl)pyrimidin-5-ylthio)pyrimidin-4-yl)acrylamide], the IC50 in test [1] (Homo sapiens, Kasumi 1, 72 h) was 4.8 µM; in test [2] (Homo sapiens, SK-BR-3, 72 h), 1.8 µM.

`CCC(=O)Nc1cccc(Sc2c(OC)nc(N3CCN(CCOCCOCCOCCOC(=O)CCCCC4SCC5NC(=O)NC54)CC3)nc2OC)c1` (centres unmarked) [YK142, 2-(2-(2-(2-(4-(4,6-dimethoxy-5-(3-propionamidophenylthio)pyrimidin-2-yl)piperazin-1-yl)ethoxy)ethoxy)ethoxy)ethyl 5-(2-oxohexahydro-1H-thieno[3,4-d]imidazol-4-yl)pentanoate] yielded an IC50 in test [2] (Homo sapiens, SK-BR-3, 72 h) of 47.9 µM.

Compound `COc1nc(N2CC[N+](C)([O-])CC2)nc(OC)c1Sc1nccc(NC(C)=O)n1` [YK75, 4-(5-(4-acetamidopyrimidin-2-ylthio)-4,6-dimethoxypyrimidin-2-yl)-1-methylpiperazine 1-oxide] gave an IC50 in test [2] (Homo sapiens, SK-BR-3, 72 h) above 100 µM.

With `CCC(=O)Nc1ccnc(Sc2c(OC)nc(N3CCCC3)nc2OC)n1` [YK106, N-(2-(4,6-dimethoxy-2-(pyrrolidin-1-yl)pyrimidin-5-ylthio)pyrimidin-4-yl)propionamide], the IC50 in test [1] (Homo sapiens, Kasumi 1, 72 h) was above 100 µM; in test [2] (Homo sapiens, SK-BR-3, 72 h), 99.5 µM.

Take `Cc1nc(N2CCN(C)CC2)nc(C)c1Sc1nccc(NC(=O)C2CC2)n1` [YK90, N-(2-(4,6-dimethyl-2-(4-methylpiperazin-1-yl)pyrimidin-5-ylthio)pyrimidin-4-yl)cyclopropanecarboxamide]: the IC50 was 20.1 µM in test [1] (Homo sapiens, Kasumi 1, 72 h); 27.1 µM in test [1] (72 h); 25.8 µM in test [2] (Homo sapiens, SK-BR-3, 72 h).

For `COc1nc(N2CCOCC2)nc(OC)c1Sc1cccc(N)c1` [PDP2, 3-(4,6-dimethoxy-2-morpholinopyrimidin-5-ylthio)aniline], the IC50 in test [1] (Homo sapiens, Kasumi 1, 72 h) was 79.7 µM; in test [2] (Homo sapiens, SK-BR-3, 72 h), above 100 µM.

In the case of `CCC(=O)Nc1ccnc(Sc2c(OC)nc(OC)nc2OC)n1` [YK77, N-(2-(2,4,6-trimethoxypyrimidin-5-ylthio)pyrimidin-4-yl)propionamide], the IC50 worked out at 62.3 µM in test [1] (Homo sapiens, Kasumi 1, 72 h) and 79.2 µM in test [2] (Homo sapiens, SK-BR-3, 72 h).

As to `CCC(=O)Nc1cccc(Sc2c(OC)nc(N3CCN(C)CC3)nc2OC)c1` [YK130, N-(3-(4,6-dimethoxy-2-(4-methylpiperazin-1-yl)pyrimidin-5-ylthio)phenyl)propionamide], 18.3 µM corresponded to half-maximal inhibition in test [2] (Homo sapiens, SK-BR-3, 72 h) (IC50).

Compound `C=C(C)C(=O)Nc1cccc(Sc2c(OC)nc(N3CCOCC3)nc2OC)c1` [PDP5, N-(3-(4,6-dimethoxy-2-morpholinopyrimidin-5-ylthio)phenyl)methacrylamide] came in with an IC50 in test [2] (Homo sapiens, SK-BR-3, 72 h) of 18.1 µM.

In test [2] (Homo sapiens, SK-BR-3, 72 h), `CCC(=O)Nc1cccc(Sc2c(OC)nc(N3CCN(CCOCCOCCOCCO)CC3)nc2OC)c1` [YK141, N-(3-(2-(4-(2-(2-(2-(2-hydroxyethoxy)ethoxy)ethoxy)ethyl)piperazin-1-yl)-4,6-dimethoxypyrimidin-5-ylthio)phenyl)propionamide] yielded an IC50 of 38.9 µM.

In turn, `COc1nc(N2CCOCC2)nc(OC)c1Sc1cccc(NC(=O)C2CC2)c1` [PDP6, N-(3-(4,6-dimethoxy-2-morpholinopyrimidin-5-ylthio)phenyl)cyclopropanecarboxamide] showed an IC50 in test [2] (Homo sapiens, SK-BR-3, 72 h) of 9.9 µM.
